Results on 20 compounds are retold here after US7550469B2, “Heterocyclic amide derivatives and their use as dopamine D3 receptor ligands” (Aventis Pharmaceuticals Inc., priority 2001, dated 2009).

pKi: −log10 of the molar value.

The target of the first test is T1, cloned human dopamine D3 receptors (Homo sapiens, UniProt P35462).
T1 construct: expressed in transfected cells; membrane homogenate
T1 sequence (P35462 whole entry): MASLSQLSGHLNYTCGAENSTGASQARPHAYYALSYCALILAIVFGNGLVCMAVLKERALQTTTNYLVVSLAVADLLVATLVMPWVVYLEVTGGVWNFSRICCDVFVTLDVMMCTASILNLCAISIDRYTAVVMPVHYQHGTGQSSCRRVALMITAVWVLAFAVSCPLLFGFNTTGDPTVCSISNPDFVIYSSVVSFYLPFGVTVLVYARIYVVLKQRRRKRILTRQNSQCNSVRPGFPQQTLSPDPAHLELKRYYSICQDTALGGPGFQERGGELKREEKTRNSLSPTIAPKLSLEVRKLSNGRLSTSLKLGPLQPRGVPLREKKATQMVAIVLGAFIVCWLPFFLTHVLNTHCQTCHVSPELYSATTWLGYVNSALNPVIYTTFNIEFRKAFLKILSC
The test can be described thus: [N-Methyl-3H]Spiroperidol binding to cloned human dopamine D3 receptors (Protocol 1). Particulars: Table 2; read-out: D3K1. The procedure, abridged:
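Membranes from CHO cells stably expressing cloned human D3 receptor were used for [N-methyl-3H]spiroperidol (60-90 Ci/mmol) binding. Assay buffer was 0.05 M Tris HCl pH 7.7 with 120 mM NaCl, 5 mM KCl, 2 mM CaCl2 and 1 mM MgCl2, optionally 0.1% ascorbic acid; total ligand concentration calculated from added CPM.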
As to `O=C(NCCCCN1CCN(c2csc3cc(C(F)(F)F)ccc23)CC1)c1ccc(-c2ccccc2)cc1` [815547A], the pKi was 8.46.

The test is the same for the next values; noted with them: read-out: D3K1.
Take `O=C(NCCCCN1CCN(c2csc3cc(C(F)(F)F)ccc23)CC1)c1cc2ccccc2s1` [814238A]: the pKi is 8.72. As to `CCOc1ccc(C(=O)NCCCCN2CCN(c3csc4cc(C(F)(F)F)ccc34)CC2)cc1` [compound 815541], the pKi was 7.92. For `O=C(NCCCCN1CCN(c2csc3cc(C(F)(F)F)ccc23)CC1)c1ccc(F)cc1F` [compound 815542], the pKi is 8.25.

Turning to `O=C(NCCCCN1CCN(c2csc3cc(C(F)(F)F)ccc23)CC1)c1ccc2c(c1)OCO2` [compound 815544], the pKi was 8.77. The same measure, in the same setting: the same measure for `CCCCOc1ccc(C(=O)NCCCCN2CCN(c3csc4cc(C(F)(F)F)ccc34)CC2)cc1` [compound 815545]: 7.41. As for `O=C(NCCCCN1CCN(c2csc3cc(C(F)(F)F)ccc23)CC1)c1sc2ccccc2c1Cl` [compound 815546], the pKi was 7.31. Consider `O=C(NCCCCN1CCN(c2csc3cc(C(F)(F)F)ccc23)CC1)c1ccc(Cl)cc1` [compound 815548], for which the pKi was 8.80. With `O=C(NCCCCN1CCN(c2csc3cc(C(F)(F)F)ccc23)CC1)c1ccc(Br)cc1` [compound 815551], the pKi was 8.37. On to `COc1ccccc1C(=O)NCCCCN1CCN(c2csc3cc(C(F)(F)F)ccc23)CC1` [compound 815554], for which the pKi was 8.01. Consider `O=C(NCCCCN1CCN(c2csc3cc(C(F)(F)F)ccc23)CC1)c1ccc(C(F)(F)F)cc1` [compound 815555], for which the pKi is 8.15. `O=C(NCCCCN1CCN(c2csc3cc(C(F)(F)F)ccc23)CC1)c1ccco1` [compound 815556]: the pKi is 8.19. Regarding `O=C(NCCCCN1CCN(c2csc3cc(C(F)(F)F)ccc23)CC1)c1c(F)cccc1F` [compound 815557], the pKi is 8.06.

The same test, now with this note: the 13th table, unit inferred; read-out: D3Ki.
As for `O=C(NCCCCN1CCCN(c2csc3cc(F)ccc23)CC1)c1ccc2ccccc2c1` [822223G], the pKi was 8.61. On the same count and under the same terms, in the case of `O=C(NCCCCN1CCCN(c2csc3cc(F)ccc23)CC1)c1cc2ccccc2s1` [822224G] it was 8.97.

For the compound `O=C(NCCCCN1CCCN(c2csc3cc(F)ccc23)CC1)c1ccco1` [S981843], the pKi is 10.18. For the compound `O=C(NCCCCN1CCCN(c2csc3cc(F)ccc23)CC1)c1ccc(OC(F)(F)F)cc1` [compound 822152], the pKi was 8.35. On to `O=C(NCCCCN1CCCN(c2csc3cc(F)ccc23)CC1)c1cccc(F)c1` [compound 822154], for which the pKi was 8.28. As for `COc1ccccc1C(=O)NCCCCN1CCCN(c2csc3cc(F)ccc23)CC1` [compound 822157], the pKi was 8.85. On the same count and under the same terms, the same measure for `CC(C)(C)c1ccc(C(=O)NCCCCN2CCCN(c3csc4cc(F)ccc34)CC2)cc1` [compound 822198]: 7.98.
